Test results reported in ChEMBL document CHEMBL1201862, “PubChem BioAssay data set” (2004).
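96-well plates; 48 h exposure; 5 concentrations. Endpoints by linear interpolation between flanking doses. Not reached: highest tested concentration assigned. GI50 marks 50% less growth.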 The source made the active and inactive calls. No stated cut-off is given here; in the data, active = GI50 up to about 1.1 µM and inactive = higher.

Legend:
Assay in all cases: NCI-60 cell line screen, 48 h
U-251 = test system: U-251
UACC-62 = test system: UACC-62
RPMI-8226 = test system: RPMI-8226
UO-31 = test system: UO-31
Malme-3M = test system: Malme-3M
SNB-75 = test system: SNB-75
OVCAR-4 = test system: OVCAR-4
NCI/ADR-RES = test system: NCI/ADR-RES
SR = test system: SR
SK-MEL-28 = test system: SK-MEL-28
SF-268 = test system: SF-268
A498 = test system: A498
A549 = test system: A549
Hs-578T = test system: Hs-578T
MDA-MB-231 = test system: MDA-MB-231
MDA-N = test system: MDA-N
NCI-H23 = test system: NCI-H23
HOP-62 = test system: HOP-62
HOP-92 = test system: HOP-92

| SMILES | GI50 (U-251) | GI50 (UACC-62) | GI50 (RPMI-8226) | GI50 (UO-31) | GI50 (Malme-3M) | GI50 (SNB-75) | GI50 (OVCAR-4) | GI50 (NCI/ADR-RES) | GI50 (SR) | GI50 (SK-MEL-28) | GI50 (SF-268) | GI50 (A498) | GI50 (A549) | GI50 (Hs-578T) | GI50 (MDA-MB-231) | GI50 (MDA-N) | GI50 (NCI-H23) | GI50 (HOP-62) | GI50 (HOP-92) |
| --- | --- | --- | --- | --- | --- | --- | --- | --- | --- | --- | --- | --- | --- | --- | --- | --- | --- | --- | --- |
| CSc1[nH]nc(N)c1C(=O)Nc1ccccc1 | > 100 µM (inactive) | > 100 µM (inactive) | > 100 µM (inactive) | > 100 µM (inactive) | > 100 µM (inactive) | > 100 µM (inactive) | > 100 µM (inactive) | > 100 µM (inactive) | > 100 µM (inactive) | > 100 µM (inactive) | > 100 µM (inactive) | > 100 µM (inactive) | > 100 µM (inactive) | > 100 µM (inactive) | > 100 µM (inactive) | > 100 µM (inactive) | > 100 µM (inactive) |  |  |
| Cn1c(=O)sc2cc(C(=S)N3CCC(Cc4ccccc4)CC3)ccc21 | 16.2 µM (inactive) | 61.5 µM (inactive) | 9.89 µM (inactive) |  |  |  |  | 21.4 µM (inactive) | 17.7 µM (inactive) | 46.6 µM (inactive) | 28.7 µM (inactive) | > 100 µM (inactive) |  | 21.4 µM (inactive) | > 100 µM (inactive) | 72.1 µM (inactive) | 44.7 µM (inactive) | > 100 µM (inactive) |  |
| CC1CN(C)c2ccccc2N=C1NN (stereo not given) | > 100 µM (inactive) | > 100 µM (inactive) | > 100 µM (inactive) | > 100 µM (inactive) | > 100 µM (inactive) |  | > 100 µM (inactive) | > 100 µM (inactive) |  | > 100 µM (inactive) | > 100 µM (inactive) | > 100 µM (inactive) | > 100 µM (inactive) | > 100 µM (inactive) | > 100 µM (inactive) | > 100 µM (inactive) | > 100 µM (inactive) | > 100 µM (inactive) |  |
| CN(CCN(C)Cc1ccc(Cl)c(Cl)c1)CCN1CCCC1 | 21.3 µM (inactive) | 2.79 µM (inactive) | 7.71 µM (inactive) | 11.6 µM (inactive) | 19.7 µM (inactive) | 26 µM (inactive) | 52.5 µM (inactive) | 67.3 µM (inactive) |  | 6.78 µM (inactive) | 10.4 µM (inactive) | 16.1 µM (inactive) | 22.6 µM (inactive) | 9.04 µM (inactive) | 18.8 µM (inactive) | 13.2 µM (inactive) | 42.1 µM (inactive) | 22.1 µM (inactive) | 4.44 µM (inactive) |
| CN(C(=O)c1cccs1)C(=S)N1CCN(c2ccccc2)CC1 | > 100 µM (inactive) | > 100 µM (inactive) | 52.2 µM (inactive) | > 100 µM (inactive) | > 100 µM (inactive) | > 100 µM (inactive) | > 100 µM (inactive) |  | 54.2 µM (inactive) | > 100 µM (inactive) | > 100 µM (inactive) |  | > 100 µM (inactive) | 42.7 µM (inactive) | > 100 µM (inactive) | > 100 µM (inactive) | > 100 µM (inactive) |  | 91.8 µM (inactive) |
| COc1ccc(NC(C)=O)cc1N1C(=O)/C(=C\c2cccc(Oc3ccccc3)c2)SC1c1ccccc1 (stereo not given) | 25.8 µM (inactive) | 26.7 µM (inactive) | 17.4 µM (inactive) | 17.3 µM (inactive) | 65.6 µM (inactive) | 38.6 µM (inactive) | 14.2 µM (inactive) | 19.2 µM (inactive) | 3.7 µM (inactive) | 28.3 µM (inactive) |  | 56.4 µM (inactive) | 40.4 µM (inactive) |  | 37.8 µM (inactive) | 26.2 µM (inactive) | 46 µM (inactive) | 34.3 µM (inactive) | 20.9 µM (inactive) |
| CC1=C(C(=O)OC(C)C)C(c2cccc([N+](=O)[O-])c2)C(C(=O)OC(CO[N+](=O)[O-])CO[N+](=O)[O-])=C(C)N1 (stereo not given) | 2.24 µM (inactive) | 2.65 µM (inactive) | 1.05 µM (active) | 3.44 µM (inactive) | 5.15 µM (inactive) | 2.66 µM (inactive) | 2.81 µM (inactive) | 2.45 µM (inactive) | 3.22 µM (inactive) | 11.4 µM (inactive) | 2.26 µM (inactive) |  | 3.37 µM (inactive) | 3.51 µM (inactive) | 3.59 µM (inactive) | 2.83 µM (inactive) | 5.37 µM (inactive) | 3.85 µM (inactive) | 1.78 µM (inactive) |
| COC(=O)/C=C(\S/C(=C(/c1ccccc1)n1cc(C(=O)OC)c(C(=O)OC)n1)c1ccccc1)C(=O)OC | 23.2 µM (inactive) | 30.5 µM (inactive) | 1.95 µM (inactive) | 2.24 µM (inactive) | 14.8 µM (inactive) | 29.1 µM (inactive) | 13 µM (inactive) | 28.4 µM (inactive) | 11.6 µM (inactive) | 20.7 µM (inactive) | 16.1 µM (inactive) | > 100 µM (inactive) | 23.9 µM (inactive) | 33.3 µM (inactive) | 22 µM (inactive) | 17.1 µM (inactive) | 18.1 µM (inactive) | 16 µM (inactive) |  |
| COC(=O)Nc1nc(=O)c2ccccc2[nH]1 | 43.8 µM (inactive) | > 100 µM (inactive) |  | 32.1 µM (inactive) | 53.3 µM (inactive) | 28 µM (inactive) | > 100 µM (inactive) | > 100 µM (inactive) | > 100 µM (inactive) | > 100 µM (inactive) | > 100 µM (inactive) | > 10 µM (inactive) | 0.0775 µM (active) | 76.7 µM (inactive) | > 100 µM (inactive) | 19.5 µM (inactive) | > 100 µM (inactive) | > 100 µM (inactive) |  |
| CN(C)CCCN1c2ccccc2CCc2ccc([N+](=O)[O-])cc21 | 29.3 µM (inactive) | 16.1 µM (inactive) | 34.5 µM (inactive) | 16 µM (inactive) | 19.5 µM (inactive) |  | 35.5 µM (inactive) | 19.1 µM (inactive) | 25.9 µM (inactive) | 25.5 µM (inactive) | 29.6 µM (inactive) | 17.7 µM (inactive) | 34.6 µM (inactive) | > 100 µM (inactive) | 39.2 µM (inactive) | 18.5 µM (inactive) | 27.2 µM (inactive) | 25.7 µM (inactive) |  |
| N#CCc1nc(-c2cc3ccccc3oc2=O)cs1 | > 100 µM (inactive) | 18.7 µM (inactive) | 33.7 µM (inactive) | 40.4 µM (inactive) | 65.8 µM (inactive) | 19.1 µM (inactive) | 44.1 µM (inactive) | 79.6 µM (inactive) | 43.6 µM (inactive) | 37.3 µM (inactive) | > 100 µM (inactive) |  | > 100 µM (inactive) | 56.9 µM (inactive) | 79.3 µM (inactive) | 37.2 µM (inactive) |  | 62.7 µM (inactive) | 41.7 µM (inactive) |
| Cc1c(-c2nc(N)c(C#N)c(N)c2C#N)c(=O)oc2ccccc12 | 55.3 µM (inactive) | > 100 µM (inactive) | 23.6 µM (inactive) | > 100 µM (inactive) | > 100 µM (inactive) | > 100 µM (inactive) | > 100 µM (inactive) | > 100 µM (inactive) |  | > 100 µM (inactive) | > 100 µM (inactive) | > 100 µM (inactive) | 45.7 µM (inactive) | > 100 µM (inactive) | > 100 µM (inactive) | > 100 µM (inactive) | 87.9 µM (inactive) | 67.3 µM (inactive) | > 100 µM (inactive) |
| COc1ccc(OC)c(C2CCCc3c2cnc2nc(N)nc(N)c32)c1 (stereo not given) |  | < 0.01 µM (active) | 0.0695 µM (active) |  | < 0.0238 µM (active) | 0.247 µM (active) | > 100 µM (inactive) | 1.04 µM (active) | < 0.01 µM (active) | > 100 µM (inactive) |  |  | < 0.01 µM (active) | > 57.3 µM (inactive) | > 100 µM (inactive) | < 0.01 µM (active) | < 0.01 µM (active) |  | 0.863 µM (active) |
| Brc1ccc(/N=N/c2ccc3ccccc3n2)cc1 | 16.7 µM (inactive) | 15.6 µM (inactive) | 18.1 µM (inactive) | 11.2 µM (inactive) | 12.8 µM (inactive) | 14.2 µM (inactive) |  | 33.3 µM (inactive) |  |  | 22.3 µM (inactive) |  | 46.9 µM (inactive) | 18 µM (inactive) | > 10 µM (inactive) | 31.8 µM (inactive) | 27.8 µM (inactive) |  | 33.2 µM (inactive) |
| O=C(Nc1c(Cl)cccc1Cl)c1c(Cl)c(Cl)c(Cl)c(Cl)c1-c1nc2ccccc2[nH]1 |  | 25.4 µM (inactive) | 37.2 µM (inactive) | 80.5 µM (inactive) | > 100 µM (inactive) | 0.313 µM (active) | 43.6 µM (inactive) | 51.1 µM (inactive) | 27.7 µM (inactive) | 70.6 µM (inactive) | 63.7 µM (inactive) | 11.4 µM (inactive) | 0.601 µM (active) | 61.8 µM (inactive) |  | 36 µM (inactive) | 76.7 µM (inactive) | 0.0501 µM (active) | 29.9 µM (inactive) |
| CN(C)CCNC(=O)Cn1ccc(=O)c2c([N+](=O)[O-])cccc21 | > 100 µM (inactive) | > 100 µM (inactive) | > 100 µM (inactive) | > 100 µM (inactive) | > 100 µM (inactive) | > 100 µM (inactive) | > 100 µM (inactive) |  | > 100 µM (inactive) | > 100 µM (inactive) | > 100 µM (inactive) | > 100 µM (inactive) | > 100 µM (inactive) | > 100 µM (inactive) | > 100 µM (inactive) | > 100 µM (inactive) | > 100 µM (inactive) | > 100 µM (inactive) |  |
| O=S1(=O)OCCOS(=O)(=O)C1(F)Br | > 100 µM (inactive) | > 100 µM (inactive) | > 100 µM (inactive) | > 100 µM (inactive) | > 100 µM (inactive) | > 100 µM (inactive) | > 100 µM (inactive) | > 100 µM (inactive) | > 100 µM (inactive) | > 100 µM (inactive) | > 100 µM (inactive) |  | > 100 µM (inactive) | > 100 µM (inactive) |  | > 100 µM (inactive) | > 100 µM (inactive) | > 100 µM (inactive) |  |
